One experiment has as its target T1, p-ABHD17C (Homo sapiens, UniProt Q6PCB6).
T1 sequence (Q6PCB6 1-329): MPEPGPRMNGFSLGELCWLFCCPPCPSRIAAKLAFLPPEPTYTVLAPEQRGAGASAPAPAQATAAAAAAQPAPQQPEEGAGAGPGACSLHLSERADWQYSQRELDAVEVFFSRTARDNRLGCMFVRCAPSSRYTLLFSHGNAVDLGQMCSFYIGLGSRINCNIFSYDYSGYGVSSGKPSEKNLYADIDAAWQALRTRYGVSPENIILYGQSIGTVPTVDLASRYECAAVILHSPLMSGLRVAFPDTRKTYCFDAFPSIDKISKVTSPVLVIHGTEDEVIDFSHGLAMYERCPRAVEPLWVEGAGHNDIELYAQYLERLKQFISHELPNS
In words: SPR (Biacore); co-IP in cells shows disruption of the ABHD17C/ALOX15B interaction. The experiment is classed as binding.

Experiment [1] addresses T2, ALOX15B immobilised for SPR (human, UniProt O15296 1-676).
T2 construct: ALOX15B, human
T2 sequence (looked up): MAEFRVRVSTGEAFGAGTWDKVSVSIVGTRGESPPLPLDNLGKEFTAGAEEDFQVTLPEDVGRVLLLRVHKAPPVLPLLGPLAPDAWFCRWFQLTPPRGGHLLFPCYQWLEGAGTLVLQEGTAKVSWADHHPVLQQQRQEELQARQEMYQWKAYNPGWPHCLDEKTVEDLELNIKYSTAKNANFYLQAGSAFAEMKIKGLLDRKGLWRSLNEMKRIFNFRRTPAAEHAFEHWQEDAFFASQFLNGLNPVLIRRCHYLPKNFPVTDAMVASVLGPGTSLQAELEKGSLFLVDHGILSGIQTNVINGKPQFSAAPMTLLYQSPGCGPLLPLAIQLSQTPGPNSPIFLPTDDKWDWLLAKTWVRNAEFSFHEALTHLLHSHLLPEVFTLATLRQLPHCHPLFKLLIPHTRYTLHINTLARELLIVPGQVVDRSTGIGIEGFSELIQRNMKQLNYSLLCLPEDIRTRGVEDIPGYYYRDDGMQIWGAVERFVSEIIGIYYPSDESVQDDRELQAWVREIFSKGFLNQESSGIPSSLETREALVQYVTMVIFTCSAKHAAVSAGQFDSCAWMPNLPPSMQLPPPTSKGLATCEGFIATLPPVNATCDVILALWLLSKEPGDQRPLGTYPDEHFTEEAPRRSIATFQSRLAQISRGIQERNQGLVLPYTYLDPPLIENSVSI
In words: SPR; ALOX15B immobilised on a Series S Sensor Chip, DCAF10 as analyte. Particulars: both partners purified. Background: Surface plasmon resonance follows binding to a sensor surface in real time, without labels.

A word on the Kd: it is a measure of binding affinity in units of concentration.

`CO[C@]1(CC[C@@H](C)CO[C@@H]2O[C@H](CO)[C@@H](O)[C@H](O)[C@H]2O)O[C@H]2C[C@H]3[C@@H]4CC=C5C[C@@H](O[C@@H]6O[C@H](CO)[C@@H](O[C@@H]7O[C@@H](C)[C@H](O)[C@@H](O)[C@H]7O)[C@H](O)[C@H]6O[C@@H]6O[C@@H](C)[C@H](O)[C@@H](O)[C@H]6O)CC[C@]5(C)[C@H]4CC[C@]3(C)[C@H]2[C@@H]1C` [methyl protodioscin] returned a Kd on p-ABHD17C of 4800 nM.

B1: recombinant DCAF10 (natural protein, UniProt Q5QP82 1-559, looked up)
chain: MFPFGPHSPGGDGSAGAGAEEPTPHEGQAAATGPPSPLHPGADATHPPPPARSPRRPGAPSLSPAPRSGELGLPGAPESSTASAPGEPSPPSPPCRRPGPDCRAKSRGRHGLGAGLGGPGARLFGWLKERSLGRGLFVDPARDNFRTMTSLYGSIHPADSVYLSTRTHGAVFNLEYSPDGSVLTVACEQTEVLLFDPISSKHIKTLSEAHEDCVNNIRFLDNRLFATCSDDTTIALWDLRKLNTKVCTLHGHTSWVKNIEYDTNTRLLVTSGFDGNVIIWDTNRYTEDGCPHKKFFHTRFLMRMRLTPDCSKMLISTSSGYLLILHDLDLTKSLEVGSYPILRARRTTSSSDLTTSSSSSGPRVSGSPCHHSDSNSSEKHMSRASQREGVSPRNSLEVVTPEVLGESDHGNCITSLQLHPKGWATLLRCSSNSDDEECTCVYEFQEGAPVRPVSPRCSLRLTHYIEEANVGRGYIKELCFSPDGRMISSPHGYGIRLLGFDKQCSELVDCLPKEASPLRVIRSLYSHNDVVLTTKFSPTHCQIASGCLSGRVSLYQPKF
notes: DCAF10, recombinant
The molecule B1 gave a Kd in experiment [1] of 6.96 nM.

(Values after PMC12463027, “KRAS/ABHD17C/ALOX15B Axis Promotes Pancreatic Cancer Progression via Ferroptosis Evasion” (Advanced Science, 2025).)
